{"source": "patent US6528536B1", "about": "“Fungicidal mixtures” (BASF Aktiengesellschaft, priority 1997, dated 2003)", "system": "powdery mildew of wheat (Erysiphe graminis forma specialis tritici)", "assay": "Activity against powdery mildew of wheat (protective spray on wheat seedlings, greenhouse)", "assay_type": "in vivo", "conditions": "evaluated after 7 days", "source_text": "The active ingredients, separately or together, were formulated as a 10% emulsion in a mixture of 70% by weight of cyclohexanone, 20% by weight of Nekanil® LN (Lutensol® AP6, wetting agent having emulsifying and dispersing action, based on ethoxylated alkylphenols) and 10% by weight of Emulphor® EL (Emulan® EL, emulsifier based on ethoxylated fatty alcohols) and diluted with water to give the desired concentration.\nLeaves of wheat seedlings cv. “Fr{umlaut over (u )}hgold” which had been grown in pots were sprayed to runoff point with an aqueous preparation of active ingredient which had been made from a stock solution comprising 10% of active compound, 63% of cyclohexanone and 27% of emulsifier, and, 24 hours after the spray coating had dried on, were dusted with spores of powdery mildew of wheat (Erysiphe graminis forma specialis tritici). […] After 7 days, the extent of mildew development was determined visually in % infection of the total leaf area.\nEvaluation was carried out by determining the infected leaf areas in percent. […] The efficacy (E) was calculated as follows using Abbot's formula: […]\nThe expected degrees of action of the mixtures of the active ingredients were determined using Colby's formula [R. S. Colby, Weeds 15, (1967) 20-22] and compared with the observed degrees of action. […]", "data": [{"smiles": "CO/N=C(/C(=O)OC)c1ccccc1COc1ccccc1C", "note": "[Ia]", "values": [{"measurement": "Efficacy in % of the untreated contol", "setting": "0.3 ppm active ingredient in the spray liquor", "result": 0, "unit": "%"}, {"measurement": "Efficacy in % of the untreated contol", "setting": "0.6 ppm active ingredient in the spray liquor", "result": 0, "unit": "%"}]}]}
